Reference: PubChem BioAssay (NCI)
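96-well plates; 48 h exposure; 5 concentrations. Endpoints by linear interpolation between flanking doses. Not reached: highest tested concentration assigned. GI50 = concentration required for 50% inhibition of growth. At the TGI there is no net growth.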

Tests used:
Assay in all cases: NCI-60 cell line screen, 48 h
OVCAR-4 ovarian = test system: OVCAR-4 ovarian
HCT-15 colon = test system: HCT-15 colon
CCRF-CEM leukemia = test system: CCRF-CEM leukemia
K-562 leukemia = test system: K-562 leukemia
SN12C renal = test system: SN12C renal
NCI/ADR-RES ovarian = test system: NCI/ADR-RES ovarian
SK-OV-3 ovarian = test system: SK-OV-3 ovarian
OVCAR-8 ovarian = test system: OVCAR-8 ovarian
TK-10 renal = test system: TK-10 renal
SK-MEL-5 melanoma = test system: SK-MEL-5 melanoma
SNB-75 CNS = test system: SNB-75 CNS
HCC-2998 colon = test system: HCC-2998 colon
RPMI-8226 leukemia = test system: RPMI-8226 leukemia
NCI-H522 lung = test system: NCI-H522 lung
SK-MEL-28 melanoma = test system: SK-MEL-28 melanoma
HT29 colon = test system: HT29 colon
SF-295 CNS = test system: SF-295 CNS
HS 578T breast = test system: HS 578T breast
SW-620 colon = test system: SW-620 colon
BT-549 breast = test system: BT-549 breast
MDA-MB-231 breast = test system: MDA-MB-231 breast
M14 melanoma = test system: M14 melanoma
MCF7 breast = test system: MCF7 breast
HOP-62 NSCLC = test system: HOP-62 NSCLC
MOLT-4 leukemia = test system: MOLT-4 leukemia
OVCAR-3 ovarian = test system: OVCAR-3 ovarian
DU-145 prostate = test system: DU-145 prostate
MDA-MB-435 = test system: MDA-MB-435
HL-60(TB) leukemia = test system: HL-60(TB) leukemia
HOP-92 NSCLC = test system: HOP-92 NSCLC
OVCAR-5 ovarian = test system: OVCAR-5 ovarian
UACC-62 melanoma = test system: UACC-62 melanoma
RXF 393 renal = test system: RXF 393 renal
LOX IMVI melanoma = test system: LOX IMVI melanoma
T-47D breast = test system: T-47D breast
HCT-116 colon = test system: HCT-116 colon
IGROV1 ovarian = test system: IGROV1 ovarian
ACHN renal = test system: ACHN renal
786-0 renal = test system: 786-0 renal
MALME-3M melanoma = test system: MALME-3M melanoma
UO-31 renal = test system: UO-31 renal
U251 CNS = test system: U251 CNS
SF-268 CNS = test system: SF-268 CNS
NCI-H460 lung = test system: NCI-H460 lung
NCI-H23 lung = test system: NCI-H23 lung
NCI-H226 lung = test system: NCI-H226 lung
A549 NSCLC = test system: A549 NSCLC
SF-539 CNS = test system: SF-539 CNS
SNB-19 CNS = test system: SNB-19 CNS
SK-MEL-2 melanoma = test system: SK-MEL-2 melanoma
EKVX NSCLC = test system: EKVX NSCLC
PC-3 prostate = test system: PC-3 prostate
SR leukemia = test system: SR leukemia
CAKI-1 renal = test system: CAKI-1 renal
UACC-257 melanoma = test system: UACC-257 melanoma
COLO 205 colon = test system: COLO 205 colon
KM12 colon = test system: KM12 colon
A498 renal = test system: A498 renal

With `O=[N+]([O-])c1ccccc1/C=C/C=C1c2ccccc2-c2ccccc21` the GI50 (OVCAR-4 ovarian) was > 100 µM, the TGI (OVCAR-4 ovarian) was > 100 µM and the GI50 (HCT-15 colon) was > 100 µM. The TGI (HCT-15 colon) was > 100 µM, the GI50 (CCRF-CEM leukemia) was > 100 µM and the TGI (CCRF-CEM leukemia) was > 100 µM. For the same compound, the GI50 (K-562 leukemia) was > 100 µM, the TGI (K-562 leukemia) was > 100 µM and the GI50 (SN12C renal) was > 100 µM. For the same compound, the TGI (SN12C renal) was > 100 µM, the GI50 (NCI/ADR-RES ovarian) was > 100 µM and the TGI (NCI/ADR-RES ovarian) was > 100 µM. The GI50 (SK-OV-3 ovarian) was > 100 µM, the TGI (SK-OV-3 ovarian) was > 100 µM and the GI50 (OVCAR-8 ovarian) was > 100 µM. The TGI (OVCAR-8 ovarian) was > 100 µM, the GI50 (TK-10 renal) was > 100 µM and the TGI (TK-10 renal) was > 100 µM. The GI50 (SK-MEL-5 melanoma) was > 100 µM, the TGI (SK-MEL-5 melanoma) was > 100 µM and the GI50 (SNB-75 CNS) was > 100 µM. For the same compound, the TGI (SNB-75 CNS) was > 100 µM, the GI50 (HCC-2998 colon) was > 100 µM and the TGI (HCC-2998 colon) was > 100 µM. For the same compound, the GI50 (RPMI-8226 leukemia) was > 100 µM, the TGI (RPMI-8226 leukemia) was > 100 µM and the GI50 (NCI-H522 lung) was > 100 µM. For the same compound, the TGI (NCI-H522 lung) was > 100 µM, the GI50 (SK-MEL-28 melanoma) was > 100 µM and the TGI (SK-MEL-28 melanoma) was > 100 µM. The GI50 (HT29 colon) was > 100 µM, the TGI (HT29 colon) was > 100 µM and the GI50 (SF-295 CNS) was > 100 µM. For the same compound, the TGI (SF-295 CNS) was > 100 µM, the GI50 (HS 578T breast) was > 100 µM and the TGI (HS 578T breast) was > 100 µM. The GI50 (SW-620 colon) was > 100 µM, the TGI (SW-620 colon) was > 100 µM and the GI50 (BT-549 breast) was > 100 µM. The TGI (BT-549 breast) was > 100 µM, the GI50 (MDA-MB-231 breast) was > 100 µM and the TGI (MDA-MB-231 breast) was > 100 µM. The GI50 (M14 melanoma) was > 100 µM, the TGI (M14 melanoma) was > 100 µM and the GI50 (MCF7 breast) was 31.5 µM. For the same compound, the TGI (MCF7 breast) was > 100 µM, the GI50 (HOP-62 NSCLC) was > 100 µM and the TGI (HOP-62 NSCLC) was > 100 µM. The GI50 (MOLT-4 leukemia) was > 100 µM, the TGI (MOLT-4 leukemia) was > 100 µM and the GI50 (OVCAR-3 ovarian) was > 100 µM. For the same compound, the TGI (OVCAR-3 ovarian) was > 100 µM, the GI50 (DU-145 prostate) was > 100 µM and the TGI (DU-145 prostate) was > 100 µM. For the same compound, the GI50 (MDA-MB-435) was 12.4 µM, the TGI (MDA-MB-435) was > 100 µM and the GI50 (HL-60(TB) leukemia) was > 100 µM. For the same compound, the TGI (HL-60(TB) leukemia) was > 100 µM, the GI50 (HOP-92 NSCLC) was > 100 µM and the TGI (HOP-92 NSCLC) was > 100 µM. For the same compound, the GI50 (OVCAR-5 ovarian) was > 100 µM, the TGI (OVCAR-5 ovarian) was > 100 µM and the GI50 (UACC-62 melanoma) was > 100 µM. For the same compound, the TGI (UACC-62 melanoma) was > 100 µM, the GI50 (RXF 393 renal) was > 100 µM and the TGI (RXF 393 renal) was > 100 µM. The GI50 (LOX IMVI melanoma) was > 100 µM, the TGI (LOX IMVI melanoma) was > 100 µM and the GI50 (T-47D breast) was > 100 µM. The TGI (T-47D breast) was > 100 µM, the GI50 (HCT-116 colon) was > 100 µM and the TGI (HCT-116 colon) was > 100 µM. For the same compound, the GI50 (IGROV1 ovarian) was > 100 µM, the TGI (IGROV1 ovarian) was > 100 µM and the GI50 (ACHN renal) was > 100 µM. For the same compound, the TGI (ACHN renal) was > 100 µM, the GI50 (786-0 renal) was > 100 µM and the TGI (786-0 renal) was > 100 µM. The GI50 (MALME-3M melanoma) was > 100 µM, the TGI (MALME-3M melanoma) was > 100 µM and the GI50 (UO-31 renal) was > 100 µM. For the same compound, the TGI (UO-31 renal) was > 100 µM, the GI50 (U251 CNS) was > 100 µM and the TGI (U251 CNS) was > 100 µM. The GI50 (SF-268 CNS) was > 100 µM, the TGI (SF-268 CNS) was > 100 µM and the GI50 (NCI-H460 lung) was > 100 µM. For the same compound, the TGI (NCI-H460 lung) was > 100 µM, the GI50 (NCI-H23 lung) was > 100 µM and the TGI (NCI-H23 lung) was > 100 µM. For the same compound, the GI50 (NCI-H226 lung) was > 100 µM, the TGI (NCI-H226 lung) was > 100 µM and the GI50 (A549 NSCLC) was > 100 µM. For the same compound, the TGI (A549 NSCLC) was > 100 µM, the GI50 (SF-539 CNS) was > 100 µM and the TGI (SF-539 CNS) was > 100 µM. The GI50 (SNB-19 CNS) was > 100 µM, the TGI (SNB-19 CNS) was > 100 µM and the GI50 (SK-MEL-2 melanoma) was > 100 µM. The TGI (SK-MEL-2 melanoma) was > 100 µM, the GI50 (EKVX NSCLC) was > 100 µM and the TGI (EKVX NSCLC) was > 100 µM. The GI50 (PC-3 prostate) was > 100 µM, the TGI (PC-3 prostate) was > 100 µM and the GI50 (SR leukemia) was > 100 µM. For the same compound, the TGI (SR leukemia) was > 100 µM, the GI50 (CAKI-1 renal) was > 100 µM and the TGI (CAKI-1 renal) was > 100 µM. For the same compound, the GI50 (UACC-257 melanoma) was > 100 µM, the TGI (UACC-257 melanoma) was > 100 µM and the GI50 (COLO 205 colon) was > 100 µM. The TGI (COLO 205 colon) was > 100 µM, the GI50 (KM12 colon) was > 100 µM and the TGI (KM12 colon) was > 100 µM. The GI50 (A498 renal) was > 100 µM and the TGI (A498 renal) was > 100 µM.
